What was measured:
[1] = test system: MM909.11 TIL; assay: HLA A*03:01-TAG tetramer staining of TIL from patient MM909.11; format: binding, human
Experimental: (§1) Staining was performed in 5 mL polystyrene test tubes (1 wash per step) or 96U well plates (3 washes per step), using 0.5-1 x10^5 cells per sample. Dead cells were detected with 2 µL of a 1:40 PBS dilution of LIVE/DEAD® Fixable Violet Dead Stain Kit (VIVID). Samples were acquired on a BD FACSCanto II (BD Biosciences, Franklin Lakes, NJ, USA) or ACEA NovoCyte 3005 with NovoSampler pro (ACEA Biosciences, Agilent, CA, US), then analyzed with FlowJo software (Tree Star Inc., Ashland, Oregon, US). Cells were gated on FSC-A versus SSC-A, single cells (FSC-A versus FSC-H), then viable cells (marker of choice versus VIVID). Cell sorting was performed on a BD FACS Aria III (BD Biosciences) by Central Biotechnology Services at Cardiff University. T cells for TCR sequencing were captured in RLT lysis buffer supplemented with 40 mM DTT or RNAprotect reagent (both from Qiagen). T cells or established cell lines sorted for culture were collected in their respective culture media supplemented with 25 µg mL^-1 of Amphotericin B (Thermo Fisher Scientific) and 10 µg mL^-1 of Ciprofloxacin (Ciproxin, Bayer, Leverkusen, Germany).
(§2) Monomeric pMHC were generated in house as described below and used to assemble tetramers as previously described.[52] […]

[2] = test system: MM909.15 TIL; assay: HLA A*03:01-TAG tetramer staining of TIL from patient MM909.15; format: binding, human
Experimental: as §1, §2

[3] = test system: MEL5 and MEL8 TCRs, MM909.24 TIL; assay: Recognition of the 9-mer BST2 peptide (MIP-1β ELISA and tetramer staining); format: cell-based, human; conditions: Figures S7C–S7F
Experimental: In brief, tetramers were assembled by 5 consecutive 20 min incubations of PE or APC conjugated streptavidin (both from Life Technologies) with pMHC monomer at 1:4 molar ratio, on ice in the dark. Once assembled, 1:100 protease inhibitor (set 1, Merk, London, UK) and PBS was added to a working concentration of 0.1 mg mL^-1 (with regards to the pMHC component). Tetramers were stored at 4°C in the dark and used within 3 days of assembly. To remove aggregates, tetramers were centrifuged at full speed in a microfuge for 1 min immediately before staining samples. Tetramer staining was performed as previously described.[52],[53] Briefly, T cell clones, lines, TILs or Jurkat cells were pre-treated with 50 nM of the protein kinase inhibitor Dasatinib at 37°C for 10-30 min in 100 µL of FACS buffer (PBS with 2% FBS), followed by the addition of 0.5 µg tetramer (with respect to pMHC component) without washing or pre-chilling, and incubated for 30 min on ice and in the dark. Cells were then washed in PBS and stained with VIVID for 5 mins at room temperature. […]
T cells were ‘rested’ overnight in R5 medium (R10 but with 5% FBS) to help reduce spontaneous release of chemokines and cytokines. […] T cell activation towards peptide was determined by MIP-1β release, and for cancer or healthy cell targets it was determined by TNF release. […]

Sequence | % of TIL stained with TAG tetramer ([1]; HLA A*03:01-RLSNRLLLR tetramer, MM909.11 TIL (passage-2), Fig S4N) [%] | TAG T cells as share of the anti-melanoma response of the TIL ([1]; MM909.11, from % tetramer+ cells and TIL reactivity toward autologous melanoma) [%] | % of TIL stained with TAG tetramer ([2]; HLA A*03:01-RLSNRLLLR tetramer, MM909.15 TIL (passage-2), Fig S4N) [%] | TAG T cells as share of the anti-melanoma response of the TIL ([2]; MM909.15, from % tetramer+ cells and TIL reactivity toward autologous melanoma) [%] | Recognition by TCRs of this study [3]
RLSNRLLLR [TAG, HLA A*03:01-restricted peptide from cancer/testis tumor antigen gene (TAG); peptide and tetramer] | 0.67 | 17.5 | 0.05 | 1.1 | –
LLLGIGILV [BST2_9, previously described 9-mer BST2 peptide] | – | – | – | – | not recognized

Source: publication PMC7619633, “Targeting of multiple tumor-associated antigens by individual T cell receptors during successful cancer immunotherapy” (Cell, 2023)
